Data taken from patent US9937139B2 (priority 2014, dated 2018).

Columns and labels:
B16 melanoma cells = assay: In vivo tumor growth suppression, B16 efficacy model; details: C57BL/6 mice, s.c. B16 melanoma, IP daily for 12 days; test compound 5 mg/kg and 10 mg/kg (dose of tabulated value not stated), melphalan 2.5 mg/kg
[1] = system: LLCPK cells conditionally expressing hLAT1; assay: LAT1-specific in vitro cytotoxicity, modified clonigenic assay; format: cell-based; details: 3 μM test compound for 30 min, then 7-10 days proliferation; induced (LAT1+) vs non-induced

Compound | Tumor Growth (% Control) 5 days post-dosing (B16 melanoma cells) [% Control] | Tumor Growth (% Control) End of dosing (B16 melanoma cells) [% Control] | percent surviving cells in cells expressing LAT1 compared to cells not expressing LAT1 [1]
Cc1ccc(N(CCCl)CCCl)cc1C(C)(CN)CC(=O)O (centres unmarked) [Example 5, 4-Amino-3-[5-[bis(2-chloroethyl)amino]-2-methyl-phenyl]-3-methyl-butanoic acid] | 14 | 13 | 
Cc1c(N(CCCl)CCCl)cccc1C(C)(CN)CC(=O)O (centres unmarked) [Example 6, 4-Amino-3-[3-[bis(2-chloroethyl)amino]-2-methyl-phenyl]-3-methyl-butanoic acid] |  |  | about the same
Cc1cc(N(CCCl)CCCl)ccc1C(C)(CN)CC(=O)O (centres unmarked) [Example 7, 4-Amino-3-[4-[bis(2-chloroethyl)amino]-2-methyl-phenyl]-3-methyl-butanoic acid] | 50 | 38 | 
N[C@@H](Cc1ccc(N(CCCl)CCCl)cc1)C(=O)O [Melphalan, melphalan, reference compound] | 56 | 33 | about the same
